Source: PubChem BioAssay (NCI)
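All cell lines were grown in 96-well plates and treated with compound for 48 hours. TGI is the concentration that stops growth completely.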

Key:
Test in all cases: inhibition of tumour cell growth, NCI panel, 48 h
OVCAR-3 ovarian = system: OVCAR-3 ovarian
HOP-92 NSCLC = system: HOP-92 NSCLC
DLD-1 colon = system: DLD-1 colon
HCT-116 colon = system: HCT-116 colon
CCRF-CEM leukemia = system: CCRF-CEM leukemia
NCI-H226 lung = system: NCI-H226 lung
HCC-2998 colon = system: HCC-2998 colon
HCT-15 colon = system: HCT-15 colon
OVCAR-8 ovarian = system: OVCAR-8 ovarian
SNB-75 CNS = system: SNB-75 CNS
KM12 colon = system: KM12 colon
HL-60(TB) leukemia = system: HL-60(TB) leukemia
786-0 renal = system: 786-0 renal
DMS 273 small cell lung = system: DMS 273 small cell lung
NCI-H23 lung = system: NCI-H23 lung
RXF 393 renal = system: RXF 393 renal
SF-268 CNS = system: SF-268 CNS
KM20L2 colon = system: KM20L2 colon
A549 NSCLC = system: A549 NSCLC
K-562 leukemia = system: K-562 leukemia
SN12C renal = system: SN12C renal
RXF-631 renal = system: RXF-631 renal
M14 melanoma = system: M14 melanoma
U251 CNS = system: U251 CNS
LXFL 529 NSCLC = system: LXFL 529 NSCLC
MALME-3M melanoma = system: MALME-3M melanoma
OVCAR-5 ovarian = system: OVCAR-5 ovarian
ACHN renal = system: ACHN renal
NCI-H522 lung = system: NCI-H522 lung
COLO 205 colon = system: COLO 205 colon
SW-620 colon = system: SW-620 colon
DMS 114 small cell lung = system: DMS 114 small cell lung
HT29 colon = system: HT29 colon
XF 498 CNS = system: XF 498 CNS
OVCAR-4 ovarian = system: OVCAR-4 ovarian
CAKI-1 renal = system: CAKI-1 renal
LOX IMVI melanoma = system: LOX IMVI melanoma
SK-OV-3 ovarian = system: SK-OV-3 ovarian
UACC-257 melanoma = system: UACC-257 melanoma
TK-10 renal = system: TK-10 renal
A498 renal = system: A498 renal
M19-MEL melanoma = system: M19-MEL melanoma
SNB-78 CNS = system: SNB-78 CNS
HOP-62 NSCLC = system: HOP-62 NSCLC
SK-MEL-5 melanoma = system: SK-MEL-5 melanoma
UO-31 renal = system: UO-31 renal
SNB-19 CNS = system: SNB-19 CNS
UACC-62 melanoma = system: UACC-62 melanoma
SF-295 CNS = system: SF-295 CNS
MOLT-4 leukemia = system: MOLT-4 leukemia
SF-539 CNS = system: SF-539 CNS
IGROV1 ovarian = system: IGROV1 ovarian
EKVX NSCLC = system: EKVX NSCLC
SK-MEL-28 melanoma = system: SK-MEL-28 melanoma
NCI-H460 lung = system: NCI-H460 lung
RPMI-8226 leukemia = system: RPMI-8226 leukemia
HOP-18 NSCLC = system: HOP-18 NSCLC
SK-MEL-2 melanoma = system: SK-MEL-2 melanoma
SR leukemia = system: SR leukemia

With `CC(=O)OC1C(O[C@H]2CC[C@]34O[C@]35CC[C@]3(C)C(C6(C)CC[C@@H](C(C)(C)O)O6)[C@@H](O)CC3(C)[C@@H]5CC(OC3OC(CO)C(O)C(O)C3O)C4C2(C)C)OCC(O)C1O` (some centres not stated) the TGI (OVCAR-3 ovarian) was over 100 µM, the TGI (HOP-92 NSCLC) was over 100 µM and the TGI (DLD-1 colon) was over 100 µM. It also gave a TGI (HCT-116 colon) of over 100 µM, a TGI (CCRF-CEM leukemia) of over 31.6 µM and a TGI (NCI-H226 lung) of over 100 µM. The TGI (HCC-2998 colon) was over 100 µM, the TGI (HCT-15 colon) was over 57.8 µM and the TGI (OVCAR-8 ovarian) was over 100 µM. For the same compound, the TGI (SNB-75 CNS) was over 100 µM, the TGI (KM12 colon) was over 100 µM and the TGI (HL-60(TB) leukemia) was over 53.3 µM. It also gave a TGI (786-0 renal) of over 60.9 µM, a TGI (DMS 273 small cell lung) of over 61.2 µM and a TGI (NCI-H23 lung) of over 100 µM. The TGI (RXF 393 renal) was over 100 µM, the TGI (SF-268 CNS) was over 100 µM and the TGI (KM20L2 colon) was over 100 µM. For the same compound, the TGI (A549 NSCLC) was over 100 µM, the TGI (K-562 leukemia) was over 74.8 µM and the TGI (SN12C renal) was over 100 µM. The TGI (RXF-631 renal) was over 100 µM, the TGI (M14 melanoma) was over 100 µM and the TGI (U251 CNS) was over 100 µM. For the same compound, the TGI (LXFL 529 NSCLC) was over 100 µM, the TGI (MALME-3M melanoma) was over 100 µM and the TGI (OVCAR-5 ovarian) was over 100 µM. It also gave a TGI (ACHN renal) of over 100 µM, a TGI (NCI-H522 lung) of over 100 µM and a TGI (COLO 205 colon) of over 73.8 µM. For the same compound, the TGI (SW-620 colon) was over 49.3 µM, the TGI (DMS 114 small cell lung) was over 100 µM and the TGI (HT29 colon) was over 100 µM. For the same compound, the TGI (XF 498 CNS) was over 100 µM, the TGI (OVCAR-4 ovarian) was over 100 µM and the TGI (CAKI-1 renal) was over 100 µM. The TGI (LOX IMVI melanoma) was over 59.3 µM, the TGI (SK-OV-3 ovarian) was over 100 µM and the TGI (UACC-257 melanoma) was over 100 µM. For the same compound, the TGI (TK-10 renal) was over 100 µM, the TGI (A498 renal) was over 100 µM and the TGI (M19-MEL melanoma) was over 100 µM. For the same compound, the TGI (SNB-78 CNS) was over 100 µM, the TGI (HOP-62 NSCLC) was over 100 µM and the TGI (SK-MEL-5 melanoma) was over 100 µM. For the same compound, the TGI (UO-31 renal) was over 100 µM, the TGI (SNB-19 CNS) was over 100 µM and the TGI (UACC-62 melanoma) was over 100 µM. For the same compound, the TGI (SF-295 CNS) was over 100 µM, the TGI (MOLT-4 leukemia) was over 100 µM and the TGI (SF-539 CNS) was over 56.6 µM. It also gave a TGI (IGROV1 ovarian) of over 100 µM, a TGI (EKVX NSCLC) of over 100 µM and a TGI (SK-MEL-28 melanoma) of over 100 µM. It also gave a TGI (NCI-H460 lung) of over 100 µM, a TGI (RPMI-8226 leukemia) of over 71.3 µM and a TGI (HOP-18 NSCLC) of over 100 µM. For the same compound, the TGI (SK-MEL-2 melanoma) was over 100 µM.
For `COc1cccc2nc3c(C(=O)NCCN(C)C)cccc3nc12`, the TGI (OVCAR-3 ovarian) was 73.9 µM, the TGI (HOP-92 NSCLC) was 28.8 µM and the TGI (DLD-1 colon) was over 83.6 µM. The TGI (HCT-116 colon) was 37 µM, the TGI (CCRF-CEM leukemia) was 25.7 µM and the TGI (NCI-H226 lung) was 20.2 µM. It also gave a TGI (HCC-2998 colon) of 36.3 µM, a TGI (HCT-15 colon) of 80.1 µM and a TGI (OVCAR-8 ovarian) of over 88 µM. For the same compound, the TGI (SNB-75 CNS) was over 47.9 µM, the TGI (KM12 colon) was 36.9 µM and the TGI (HL-60(TB) leukemia) was 17.5 µM. It also gave a TGI (786-0 renal) of over 84.6 µM, a TGI (DMS 273 small cell lung) of over 100 µM and a TGI (NCI-H23 lung) of 27.2 µM. For the same compound, the TGI (RXF 393 renal) was 26.7 µM, the TGI (SF-268 CNS) was 1.84 µM and the TGI (KM20L2 colon) was 36.8 µM. The TGI (A549 NSCLC) was over 100 µM, the TGI (K-562 leukemia) was 25.2 µM and the TGI (SN12C renal) was over 72.3 µM. It also gave a TGI (RXF-631 renal) of over 67.2 µM, a TGI (M14 melanoma) of 36.3 µM and a TGI (U251 CNS) of 59.1 µM. For the same compound, the TGI (LXFL 529 NSCLC) was 42.4 µM, the TGI (MALME-3M melanoma) was 21.9 µM and the TGI (OVCAR-5 ovarian) was 42.4 µM. It also gave a TGI (ACHN renal) of over 100 µM, a TGI (NCI-H522 lung) of over 44.1 µM and a TGI (COLO 205 colon) of 28.8 µM. It also gave a TGI (SW-620 colon) of over 57.7 µM, a TGI (DMS 114 small cell lung) of 21 µM and a TGI (HT29 colon) of 32 µM. It also gave a TGI (XF 498 CNS) of 29.1 µM, a TGI (OVCAR-4 ovarian) of 26.7 µM and a TGI (CAKI-1 renal) of over 100 µM. For the same compound, the TGI (LOX IMVI melanoma) was 14.1 µM, the TGI (SK-OV-3 ovarian) was over 46.4 µM and the TGI (UACC-257 melanoma) was 27.1 µM. For the same compound, the TGI (TK-10 renal) was 61 µM, the TGI (A498 renal) was 27.3 µM and the TGI (M19-MEL melanoma) was 22 µM. It also gave a TGI (SNB-78 CNS) of 69.8 µM, a TGI (HOP-62 NSCLC) of 38.2 µM and a TGI (SK-MEL-5 melanoma) of 36.8 µM. For the same compound, the TGI (SR leukemia) was over 37.9 µM, the TGI (UO-31 renal) was 66.8 µM and the TGI (SNB-19 CNS) was over 91.8 µM. For the same compound, the TGI (UACC-62 melanoma) was 27 µM, the TGI (SF-295 CNS) was 36.8 µM and the TGI (MOLT-4 leukemia) was 15.1 µM. For the same compound, the TGI (SF-539 CNS) was 17.1 µM, the TGI (IGROV1 ovarian) was over 72.9 µM and the TGI (EKVX NSCLC) was 40.5 µM. For the same compound, the TGI (SK-MEL-28 melanoma) was 28.8 µM, the TGI (NCI-H460 lung) was 21 µM and the TGI (RPMI-8226 leukemia) was over 63.8 µM. The TGI (HOP-18 NSCLC) was over 79.4 µM and the TGI (SK-MEL-2 melanoma) was 22.7 µM.
